EP1220857B1, “GONADOTROPIN RELEASING HORMONE RECEPTOR ANTAGONISTS AND THEIR RELATED METHODS OF USE” (NEUROCRINE BIOSCIENCES, INC., priority 1999, dated 2001)

The molecules below were run against T1, GnRH receptor (Homo sapiens, UniProt P30968) (assay: GnRH receptor membrane binding assay). Settings: displacement of [125I]-labeled GnRH peptide from membranes of cells transfected with GnRH receptor expression vectors; Ki by Cheng-Prusoff.
T1 construct: expressed in transfected cells
T1 sequence (P30968 1-328): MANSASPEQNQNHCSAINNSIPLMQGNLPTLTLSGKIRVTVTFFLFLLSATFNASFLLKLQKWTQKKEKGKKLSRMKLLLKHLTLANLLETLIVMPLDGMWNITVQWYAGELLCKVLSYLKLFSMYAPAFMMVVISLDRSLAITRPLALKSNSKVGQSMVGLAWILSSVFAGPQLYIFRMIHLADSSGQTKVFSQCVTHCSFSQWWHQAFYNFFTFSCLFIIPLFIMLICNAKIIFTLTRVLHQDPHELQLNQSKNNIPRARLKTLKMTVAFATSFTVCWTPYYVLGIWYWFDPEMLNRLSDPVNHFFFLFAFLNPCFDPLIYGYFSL
Procedure: Activity of GnRH receptor antagonists are typically calculated from the IC50 as the concentration of a compound necessary to displace 50% of the radiolabeled ligand from the GnRH receptor, and is reported as a "Ki" value calculated by the following equation: Ki =(IC50)/(1 + L / KD) [formula] where L = radioligand and KD = affinity of radioligand for receptor (Cheng and Prusoff, Biochem. Pharmacol. 22:3099, 1973). GnRH receptor antagonists of this invention have a Ki of 100 µM or less. In a preferred embodiment of this invention, the GnRH receptor antagonists have a Ki of less than 10 µM, and more preferably less than 1µM. More preferred compounds include: 1-1, 1-2-5, 12, 13-15, 19, 21, 27, 31, 32, 34, 37, 55, 58, 64, 73, 2B, 2D, 3A, 3B, 3D, 4A, 4B, 4C, 4D, 4G, 4H, 5A and 5B (see Examples below).
The GnRH analog is labeled by the chloramine-T method. To 10 µg of peptide in 20 µl of 0.5M sodium phosphate buffer, pH 7.6, is added 1 mCi of Na125I, followed by 22.5 µg chloramine-T and the mixture vortexed for 20 sec. The reaction is stopped by the addition of 60 µg sodium metabisulfite and the free iodine is removed by passing the iodinated mixture through a C-8 Sep-Pak cartridge (Millipore Corp., Milford, MA). The peptide is eluted with a small volume of 80% acetonitrile/water. The recovered labeled peptide is further purified by reverse phase HPLC on a Vydac C-18 analytical column (The Separations Group, Hesperia, CA) on a Beckman 334 gradient HPLC system using a gradient of acetonitrile in 0.1% TFA. The purified radioactive peptide is stored in 0.1 % BSA/20% acetonitrile/0.1% TFA at -800C and can be used for up to 4 weeks.
Cells stably, or transiently, transfected with GnRH receptor expression vectors are harvested, resuspended in 5% sucrose and homogenized using a polytron homogenizer (2x 15 sec). Nuclei are removed by centrifugation (3000 x g for 5 min.), and the supernatant centrifuged (20,000 x g for 30 min, 4° C) to collect the membrane fraction. The final membrane preparation is resuspended in binding buffer (10mM Hepes (pH 7.5), 150 mM NaCl, and 0.1% BSA) and stored at -70°C. Binding reactions are performed in a Millipore MultiScreen 96-well filtration plate assembly with polyethylenimine coated GF/C membranes. The reaction is initiated by adding membranes (40 ug protein in 130 ul binding buffer) to 50ul of [^125I]-labeled GnRH peptide (~100,000 cpm), and 20ul of competitor at varying concentrations. The reaction is terminated after 90 minutes by application of vacuum and washing (2X) with phosphate buffered saline. Bound radioactivity is measured using 96-well scintillation counting (Packard Topcount) or by removing the filters from the plate and direct gamma counting. Ki values are calculated from competition binding data using non-linear least squares regression using the Prism software package (GraphPad Software).

| Ki [µM] | SMILES |
| --- | --- |
| < 1 | COc1cccc(-c2c(C)n(Cc3ccccc3F)c3nc(C(C)(C)C)c(CNCc4ccccn4)n3c2=O)c1 [Example 3D, 3-(N-(2-Pyridylmethyl))aminomethyl-2-(tert-butyl)-6-methyl-7-(2-fluorobenzyl)-5-(3-methoxyphenyl)imidazolo[1,2-a]pyrimid-4-one] |
| < 1 | COc1cccc(-c2c(C)n(Cc3ccccc3F)c3nc(C(C)(C)C)c(CNCCc4ccccn4)n3c2=O)c1 [Example 3B] |
| < 1 | COc1cccc(-c2c(C)n(Cc3ccccc3F)c3nc(C(C)(C)C)c(CNCCc4ccccc4F)n3c2=O)c1 [Example 3A, 2-(tert-Butyl)-3-[N-(2-fluorophenyl)ethyl]aminomethyl-5-(3-methoxyphenyl)-6-methyl-7-(2-fluorobenzyl)imidazolo[1,2-a]pyrimid-4-one] |
| < 1 | CCOC(=O)c1cn(Cc2ccccc2F)c2cc(C(C)(C)C)c(CN(C)CCc3ccccn3)n2c1=O [Example 2B] |
| < 1 | CN(CCc1ccccn1)Cc1c(C(C)(C)C)cc2n(Cc3ccccc3F)cc(C(=O)NCCCc3ccccc3)c(=O)n12 [Example 2D] |
